In patent publication US20040138193A1, “Oestrogen fatty acid monoester as a hypolipidaemic and antidiabetic agent” (priority 2001, published 2004):

Key:
obese rats = experiment: Lipoprotein separation by ultracentrifugation and lipid composition analysis, obese rats; assay type: in vivo, rat; settings: 10 μmol/kg daily, vs controls
Text: FIG. 4 is analogous to FIG. 3, but for obese rats.
(§1) Lipoproteins in fresh plasma were fractionated by differential ultracentrifugation in known density media obtained through the addition of KBr. […] These fractions were used for the analysis of protein and lipidic components, and for the estimation of particle size.
(§2) Whole plasma, lipoprotein fractions and LPdp were used for the analysis of protein and lipid content. Total protein was estimated with the Bradford method (cf. M. M. Bradford, Anal. Biochem. 1976, vol. 72, pp. 248-254). Total cholesterol was measured in saline with a high-performance cholesterol kit. Triacylglycerol concentrations were measured with a commercial kit and the results were corrected for free glycerol. Phospholipid was quantified by a choline-based method. […] Recoveries for all plasma components (i.e. deviations from the values in whole plasma and those derived from the sum of its content in lipoprotein fractions) were lowest for triacylglycerols (88±3%) and highest for protein (92±3%). Sudan black-prestained serum samples were sepparated by polyacrylamide gel electrophoresis. Separation of lipoprotein classes through centrifugation allowed a detailed analysis of lipoprotein composition as shown in FIGS. 3 and 4.

lean rats = experiment: Lipoprotein separation by ultracentrifugation and lipid composition analysis, lean rats; assay type: in vivo, rat; settings: 10 μmol/kg daily, vs controls
Text: Codes in bars are: triacylglycerols=white; phospholipids=lines; cholesterol=dots.
as §1, §2

## CCCCCCCC/C=C\CCCCCCCC(=O)Oc1ccc2c(c1)CC[C@@H]1[C@@H]2CC[C@]2(C)C(=O)CC[C@@H]12 [oleoyl-estrone]
Obese rats
  change of HDL components: all components decreased again with treatment, except for triacylglycerols
  change of LDL components: only tricylglycerol levels decreased
  change of chylomicra and VLDL components: marked decreases
  change of total phospholipid levels in lipoprotein-depleted plasma: decrease
  levels of all lipid classes in whole plasma: markedly lower levels
Lean rats
  change in lipoprotein composition: little change
  change of cholesterol in the HDL fraction: decreased most
  change of total phospholipid levels in lipoprotein-depleted plasma: decrease
